#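 Cells were grown in 96-well plates and exposed to each compound for 48 hours at five concentrations; endpoints were interpolated linearly between bracketing concentrations, or set to the highest concentration if not reached. At the TGI there is no net growth.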
# Columns and labels:
# Assay in all cases: NCI tumour cell line growth inhibition, 48 h
# [1] = test system: 786-0 renal
# [2] = test system: A498 renal
# [3] = test system: A549 NSCLC
# [4] = test system: ACHN renal
# [5] = test system: BT-549 breast
# [6] = test system: CAKI-1 renal
# [7] = test system: CCRF-CEM leukemia
# [8] = test system: COLO 205 colon
# [9] = test system: DU-145 prostate
# [10] = test system: EKVX NSCLC
# [11] = test system: HCC-2998 colon
# [12] = test system: HCT-116 colon
# [13] = test system: HCT-15 colon
# [14] = test system: HL-60(TB) leukemia
# [15] = test system: HOP-62 NSCLC
# [16] = test system: HOP-92 NSCLC
# [17] = test system: HS 578T breast
# [18] = test system: HT29 colon
# [19] = test system: K-562 leukemia
# [20] = test system: KM12 colon
# [21] = test system: LOX IMVI melanoma
# [22] = test system: M14 melanoma
# [23] = test system: MALME-3M melanoma
# [24] = test system: MCF7 breast
# [25] = test system: MDA-MB-231 breast
# [26] = test system: MDA-MB-435
# [27] = test system: MDA-N
# [28] = test system: MOLT-4 leukemia
# [29] = test system: NCI-H226 lung
# [30] = test system: NCI-H23 lung
# [31] = test system: NCI-H460 lung
# [32] = test system: NCI-H522 lung
# [33] = test system: NCI/ADR-RES ovarian
# [34] = test system: OVCAR-3 ovarian
# [35] = test system: OVCAR-4 ovarian
# [36] = test system: OVCAR-5 ovarian
# [37] = test system: OVCAR-8 ovarian
# [38] = test system: PC-3 prostate
# [39] = test system: RPMI-8226 leukemia
# [40] = test system: RXF 393 renal
# [41] = test system: SF-268 CNS
# [42] = test system: SF-295 CNS
# [43] = test system: SF-539 CNS
# [44] = test system: SK-MEL-2 melanoma
# [45] = test system: SK-MEL-28 melanoma
# [46] = test system: SK-MEL-5 melanoma
# [47] = test system: SK-OV-3 ovarian
# [48] = test system: SN12C renal
# [49] = test system: SNB-19 CNS
# [50] = test system: SNB-75 CNS
# [51] = test system: SR leukemia
# [52] = test system: SW-620 colon
# [53] = test system: T-47D breast
# [54] = test system: TK-10 renal
# [55] = test system: U251 CNS
# [56] = test system: UACC-257 melanoma
# [57] = test system: UACC-62 melanoma
# [58] = test system: UO-31 renal
# [59] = test system: IGROV1 ovarian
smiles,measurement,setting,value
C[C@]12CCC(=O)[C@@H](CCC3=CC(=O)C=CC3=O)[C@@H]1CCC2=O,TGI,[1],41.1 µM
same,TGI,[2],39.6 µM
same,TGI,[3],> 54.5 µM
same,TGI,[4],32.5 µM
same,TGI,[5],30.2 µM
same,TGI,[6],27.7 µM
same,TGI,[7],> 100 µM
same,TGI,[8],31.2 µM
same,TGI,[9],40.8 µM
same,TGI,[10],47.5 µM
same,TGI,[11],31.4 µM
same,TGI,[12],> 50.5 µM
same,TGI,[13],> 31.6 µM
same,TGI,[14],39.1 µM
same,TGI,[15],> 100 µM
same,TGI,[16],> 100 µM
same,TGI,[17],43.6 µM
same,TGI,[18],82.2 µM
same,TGI,[19],> 100 µM
same,TGI,[20],32 µM
same,TGI,[21],39.3 µM
same,TGI,[22],59.1 µM
same,TGI,[23],37.9 µM
same,TGI,[24],37.2 µM
same,TGI,[25],49.2 µM
same,TGI,[26],> 56.2 µM
same,TGI,[27],> 52.8 µM
same,TGI,[28],> 100 µM
same,TGI,[29],57.3 µM
same,TGI,[30],38.2 µM
same,TGI,[31],31.4 µM
same,TGI,[32],5.64 µM
same,TGI,[33],> 100 µM
same,TGI,[34],36 µM
same,TGI,[35],53.2 µM
same,TGI,[36],> 75.1 µM
same,TGI,[37],> 69.5 µM
same,TGI,[38],27.5 µM
same,TGI,[39],> 100 µM
same,TGI,[40],5.43 µM
same,TGI,[41],39.5 µM
same,TGI,[42],36.7 µM
same,TGI,[43],35.7 µM
same,TGI,[44],27.1 µM
same,TGI,[45],37.1 µM
same,TGI,[46],20.7 µM
same,TGI,[47],63.9 µM
same,TGI,[48],> 100 µM
same,TGI,[49],> 100 µM
same,TGI,[50],25.8 µM
same,TGI,[51],> 100 µM
same,TGI,[52],> 58.7 µM
same,TGI,[53],> 81.7 µM
same,TGI,[54],30.4 µM
same,TGI,[55],> 47.3 µM
same,TGI,[56],39 µM
same,TGI,[57],44.1 µM
same,TGI,[58],31.1 µM
CCC(CO)Nc1nc(NCc2ccccc2)c2ncn(C(C)C)c2n1 (stereo unspecified),TGI,[1],> 80.7 µM
same,TGI,[2],77.3 µM
same,TGI,[3],> 100 µM
same,TGI,[4],> 100 µM
same,TGI,[5],> 55.3 µM
same,TGI,[6],> 82.5 µM
same,TGI,[7],> 86.8 µM
same,TGI,[8],34.1 µM
same,TGI,[9],> 100 µM
same,TGI,[10],49.5 µM
same,TGI,[11],34.7 µM
same,TGI,[12],> 90.2 µM
same,TGI,[13],> 100 µM
same,TGI,[14],> 70.5 µM
same,TGI,[15],33.9 µM
same,TGI,[16],56.2 µM
same,TGI,[17],27.3 µM
same,TGI,[18],52.5 µM
same,TGI,[59],> 100 µM
same,TGI,[19],> 100 µM
same,TGI,[20],36.3 µM
same,TGI,[21],> 100 µM
same,TGI,[22],32.7 µM
same,TGI,[23],59.3 µM
same,TGI,[24],> 57.3 µM
same,TGI,[25],> 94.5 µM
same,TGI,[26],> 68.1 µM
same,TGI,[27],> 100 µM
same,TGI,[29],39.4 µM
same,TGI,[30],36.1 µM
same,TGI,[31],> 100 µM
same,TGI,[32],55.4 µM
same,TGI,[33],42.3 µM
same,TGI,[34],37.9 µM
same,TGI,[35],> 58.1 µM
same,TGI,[36],> 69.1 µM
same,TGI,[37],57.5 µM
same,TGI,[38],37.1 µM
same,TGI,[39],> 100 µM
same,TGI,[40],20.9 µM
same,TGI,[41],40.4 µM
same,TGI,[42],50.9 µM
same,TGI,[43],26.4 µM
same,TGI,[44],38.9 µM
same,TGI,[45],34.4 µM
same,TGI,[46],> 51.8 µM
same,TGI,[47],> 100 µM
same,TGI,[48],> 100 µM
same,TGI,[49],> 100 µM
same,TGI,[50],26.8 µM
same,TGI,[51],19 µM
same,TGI,[52],> 79 µM
same,TGI,[53],> 100 µM
same,TGI,[54],> 84.6 µM
same,TGI,[55],> 100 µM
same,TGI,[56],> 94.7 µM
same,TGI,[57],47 µM
same,TGI,[58],40.7 µM
